Marks after values point to notes of the source that are not given here. Starred links: 1 amine or outer side, 2 acyl side, 3 side chain; linkers in the order of their positions; H or OH if unused. Non-standard residues stand in square brackets, D forms with d. Residues, ends and D or L forms follow the SMILES beside them. Groups on a side chain read outwards from the residue. No end group written: not given here. *: point of attachment. C20 diacid = O=C(O)CCCCCCCCCCCCCCCCCCC(=O)*; γGlu = O=C(O)[C@H](CCC(=O)[*:2])N[*:1]; Moiety A = not defined here; AEEA = NCCOCCOCC(=O)O; Aib = CC(C)(N)C(=O)O
Tested on: type 2 diabetic mouse (db/db) model
Test: Efficacy study in db/db mice at 10 nM/kg dose (blood glucose, body weight, food intake)
Assay type: in vivo
Details: for Cumulative food Intake (g) 0-48 hr. vs. Baseline, Mean / Cumulative food Intake (g) 0-96 hr. vs. Baseline, Mean / Delta Blood Glucose (mM) Mean / Body Wt. Change (%) 48 hr. vs. Baseline, Mean / Body Wt. Change (%) 96 hr. vs. Baseline, Mean: 10 nM/kg s.c. single dose
Protocol: The effect of compounds of present invention on blood glucose, food intake and body weight was studied in mice. This study was performed in a type 2 diabetic mouse (db/db) model. […] Baseline blood glucose was measured from all the animals. […] All the animals were administered with test items subcutaneously. […] Delta blood glucose (mM) was calculated.

[1] = Study 4, db/db mice, 0 hr (baseline)
[2] = db/db mice, 10 nM/kg s.c., vs diabetic control

Compound 12: SEQ ID 12 polypeptide, Lys20 acylated with Moiety A (Y[Aib]EGTFTSDYSIILDKIAQK(Moiety A)AFVQWLIAGGPSSGAPPPS-NH2; reading uncertain)
Cumulative food Intake (g) 0-48 hr. vs. Baseline, Mean (Study 4, db/db mice): 10.2* g | Cumulative food Intake (g) 0-96 hr. vs. Baseline, Mean (Study 4, db/db mice): 26.0 g | Delta Blood Glucose (mM) Mean [1]: 0 mM | Delta Blood Glucose (mM) Mean (Study 4, db/db mice, 4 hr): −14.6*** mM | Delta Blood Glucose (mM) Mean (Study 4, db/db mice, 8 hr): −14.8*** mM | Delta Blood Glucose (mM) Mean (Study 4, db/db mice, 12 hr): −14.9*** mM | Delta Blood Glucose (mM) Mean (Study 4, db/db mice, 24 hr): −4.8** mM | Body Wt. Change (%) 48 hr. vs. Baseline, Mean (Study 4, db/db mice, 48 hr): −3.0*** % | Delta Blood Glucose (mM) Mean (Study 4, db/db mice, 48 hr): 2.5 mM | Delta Blood Glucose (mM) Mean (Study 4, db/db mice, 72 hr): 3.9 mM | Body Wt. Change (%) 96 hr. vs. Baseline, Mean (Study 4, db/db mice, 96 hr): −0.4% | Delta Blood Glucose (mM) Mean (Study 4, db/db mice, 96 hr): 6.8 mM

CC[C@H](C)[C@H](NC(=O)[C@H](CCCCN)NC(=O)[C@H](CC(=O)O)NC(=O)[C@H](CC(C)C)NC(=O)[C@H](CC(C)C)NC(=O)[C@@H](NC(=O)[C@H](CO)NC(=O)[C@H](Cc1ccc(O)cc1)NC(=O)[C@H](CC(=O)O)NC(=O)[C@H](CO)NC(=O)[C@@H](NC(=O)[C@H](Cc1ccccc1)NC(=O)[C@@H](NC(=O)CNC(=O)[C@H](CCC(=O)O)NC(=O)C(C)(C)NC(=O)[C@@H](N)Cc1ccc(O)cc1)[C@@H](C)O)[C@@H](C)O)[C@@H](C)CC)C(=O)N[C@@H](C)C(=O)N[C@@H](CCC(N)=O)C(=O)N[C@@H](CCCCNC(=O)COCCOCCNC(=O)C(C)(C)NC(=O)CC[C@H](NC(=O)CCCCCCCCCCCCCCCCCCC(=O)O)C(=O)O)C(=O)N[C@@H](C)C(=O)N[C@@H](Cc1ccccc1)C(=O)N[C@H](C(=O)N[C@@H](CCC(N)=O)C(=O)N[C@@H](Cc1c[nH]c2ccccc12)C(=O)N[C@@H](CC(C)C)C(=O)N[C@H](C(=O)N[C@@H](C)C(=O)NCC(=O)NCC(=O)N1CCC[C@H]1C(=O)N[C@@H](CO)C(=O)N[C@@H](CO)C(=O)NCC(=O)N[C@@H](C)C(=O)N1CCC[C@H]1C(=O)N1CCC[C@H]1C(=O)N1CCC[C@H]1C(=O)N[C@@H](CO)C(N)=O)[C@@H](C)CC)C(C)C [Compound 3] (H-Y[Aib]EGTFTSDYSILLDKIAQK([AEEA-Aib-γGlu-C20 diacid])AFVQWLIAGGPSSGAPPPS-NH2)
Cumulative food Intake (g) 0-48 hr. vs. Baseline, Mean (Study 2, db/db mice): 6.0*** g | Cumulative food Intake (g) 0-96 hr. vs. Baseline, Mean (Study 2, db/db mice): 16.0*** g | Delta Blood Glucose (mM) Mean (Study 2, db/db mice, 0 hr (baseline)): 0 mM | Delta Blood Glucose (mM) Mean (Study 2, db/db mice, 4 hr): −10.3*** mM | Delta Blood Glucose (mM) Mean (Study 2, db/db mice, 8 hr): −13.9*** mM | Delta Blood Glucose (mM) Mean (Study 2, db/db mice, 12 hr): −15.8*** mM | Delta Blood Glucose (mM) Mean (Study 2, db/db mice, 24 hr): −10.9*** mM | Body Wt. Change (%) 48 hr. vs. Baseline, Mean (Study 2, db/db mice, 48 hr): −5.6*** % | Delta Blood Glucose (mM) Mean (Study 2, db/db mice, 48 hr): −6.6*** mM | Delta Blood Glucose (mM) Mean (Study 2, db/db mice, 72 hr): 0.1 mM | Body Wt. Change (%) 96 hr. vs. Baseline, Mean (Study 2, db/db mice, 96 hr): −4.9*** % | Delta Blood Glucose (mM) Mean (Study 2, db/db mice, 96 hr): -0.7 mM | blood glucose reduction [2]: statistically significant blood glucose reduction upto 96 hr post treatment | body weight reduction [2]: statistically significant reduction in food intake and body weight | reduction in food consumption [2]: statistically significant reduction in food intake

CC[C@H](NC(=O)[C@@H](NC(=O)[C@H](CO)NC(=O)[C@H](Cc1ccc(O)cc1)NC(=O)[C@H](CC(=O)O)NC(=O)[C@H](CO)NC(=O)[C@@H](NC(=O)[C@H](Cc1ccccc1)NC(=O)[C@@H](NC(=O)CNC(=O)[C@H](CCC(=O)O)NC(=O)C(C)(C)NC(=O)[C@@H](N)Cc1ccc(O)cc1)[C@@H](C)O)[C@@H](C)O)[C@@H](C)CC)C(=O)N[C@@H](CC(C)C)C(=O)N[C@@H](CC(=O)O)C(=O)N[C@@H](CCCCN)C(=O)N[C@H](C(=O)N[C@@H](C)C(=O)N[C@@H](CCC(N)=O)C(=O)N[C@@H](CCCCNC(=O)COCCOCCNC(=O)C(C)(C)NC(=O)CC[C@H](NC(=O)CCCCCCCCCCCCCCCCCCC(=O)O)C(=O)O)C(=O)N[C@@H](C)C(=O)N[C@@H](Cc1ccccc1)C(=O)N[C@H](C(=O)N[C@@H](CCC(N)=O)C(=O)N[C@@H](Cc1c[nH]c2ccccc12)C(=O)N[C@@H](CC(C)C)C(=O)N[C@H](C(=O)N[C@@H](C)C(=O)NCC(=O)NCC(=O)N1CCC[C@H]1C(=O)N[C@@H](CO)C(=O)N[C@@H](CO)C(=O)NCC(=O)N[C@@H](C)C(=O)N1CCC[C@H]1C(=O)N1CCC[C@H]1C(=O)N1CCC[C@H]1C(=O)N[C@@H](CO)C(N)=O)[C@@H](C)CC)C(C)C)[C@@H](C)CC [Compound 10]
Cumulative food Intake (g) 0-48 hr. vs. Baseline, Mean (Study 4, db/db mice): 8.2*** g | Cumulative food Intake (g) 0-96 hr. vs. Baseline, Mean (Study 4, db/db mice): 20.5** g | Delta Blood Glucose (mM) Mean [1]: 0 mM | Delta Blood Glucose (mM) Mean (Study 4, db/db mice, 4 hr): −12.1*** mM | Delta Blood Glucose (mM) Mean (Study 4, db/db mice, 8 hr): −13.6*** mM | Delta Blood Glucose (mM) Mean (Study 4, db/db mice, 12 hr): −14.7*** mM | Delta Blood Glucose (mM) Mean (Study 4, db/db mice, 24 hr): −15.6*** mM | Body Wt. Change (%) 48 hr. vs. Baseline, Mean (Study 4, db/db mice, 48 hr): −4.5*** % | Delta Blood Glucose (mM) Mean (Study 4, db/db mice, 48 hr): −4.0** mM | Delta Blood Glucose (mM) Mean (Study 4, db/db mice, 72 hr): 2.3 mM | Body Wt. Change (%) 96 hr. vs. Baseline, Mean (Study 4, db/db mice, 96 hr): −3.1*** % | Delta Blood Glucose (mM) Mean (Study 4, db/db mice, 96 hr): 1.7 mM

From patent US12622948B2 (SUN PHARMACEUTICAL INDUSTRIES LIMITED, priority 2020, dated 2026)
